{"source": "patent US6869958B2", "about": "“Fused tetrahydropyridine derivatives as matrix metalloproteinase inhibitors” (Warner-Lambert Company, priority 2002, dated 2005)", "biological_target": "T1, hMMP-13CD (Homo sapiens, UniProt P45452)", "T1 construct": "a human MMP-13 catalytic domain (“hMMP-13CD”)", "experiment": "Inhibition of MMP-13 catalytic domain (IC50)", "assay_type": "biochemical", "details": "human MMP-13 catalytic domain", "procedure": "Thiopeptolide substrates show virtually no decomposition or hydrolysis at or below neutral pH in the absence of a matrix metalloproteinase enzyme. A typical thiopeptolide substrate commonly utilized for assays is Ac-Pro-Leu-Gly-thioester-Leu-Leu-Gly-OEt. A 100 μL assay mixture will contain 50 mM of N-2-hydroxyethylpiperazine-N′-2-ethanesulfonic acid buffer (“HEPES,” pH 7.0), 10 mM CaCl2, 100 μM thiopeptolide substrate, and 1 mM 5,5′-dithio-bis-(2-nitro-benzoic acid) (DTNB). The thiopeptolide substrate concentration may be varied, for example from 10 to 800 μM to obtain Km and Kcat values. The change in absorbance at 405 nm is monitored on a Thermo Max microplate reader (molecular Devices, Menlo Park, Calif.) at room temperature (22° C.). […]\nSome representative compounds of Formula I have been evaluated for their ability to inhibit MMP-13. Inhibitor activity versus other MMPs with the compounds may be determined using, for example, MMP-1FL, which refers to full length interstitial collagenase; MMP-2FL, which refers to full length Gelatinase A; MMP-3CD, which refers to the catalytic domain of stromelysin; MMP-7FL, which refers to full length matrilysin; MMP-9FL, which refers to full length Gelatinase B; MMP-13CD, which refers to the catalytic domain of collagenase 3; and MMP-14CD, which refers to the catalytic domain of MMP-14. […]", "data": [{"smiles": "O=C(O)c1ccc(Cn2ccc3ccc(C#CCn4ccnn4)cc3c2=O)cc1", "note": "[4-[1-oxo-7-(3-[1,2,3]triazol-1-ylprop-1-ynyl)-1H-isoquinolin-2-ylmethyl]benzoic acid]", "values": [{"measurement": "IC50", "result": "> 50", "unit": "µM"}]}]}
